Legend:
DOHH2 cells = assay: Cell proliferation assay in DOHH2 cells (MTS); format: cell-based; conditions: Homo sapiens, DOHH-2, inhibition of DOHH2 cell proliferation, 120 h incubation
Experimental: To investigate whether a compound is able to inhibit the activity of BTK in cells, a mechanism-based assay using DOHH2 (DSMZ catalog #: ACC47) cell was developed. In this assay, inhibition of BTK was detected by the inhibition of DOHH2 cells proliferation. Cells were collected and plated onto 96-well plates at the optimized cell density (5000 cells/well). Plates were incubated at 37° C., with 5% CO2 for 4h. Compounds were serially diluted and added to the plates with the final concentrations as 10000, 3333.3, 1111.1, 370.4, 123.5, 41.2, 13.7, 4.6 and 1.5 nM. Plates were incubated at 37° C., with 5% CO2 for 120 h. An aliquot of 20 μL MTS/100 μL medium mixture solution were added to each well and the plates were incubated for exactly 2 h. The reaction was stopped by adding 25 μL 10% SDS to each well. The absorbance was measured by a microplate reader at 490 nm and 650 nm (reference wavelength). IC50 was calculated using GraphPad Prism 5.0.

BTK (C481S) = BTK (C481S) (Homo sapiens (Human), UniProt Q06187, C481S); assay: Kinase assay of BTK (C481S), [33P]-ATP filter-binding, at Reaction Biology Corporation; format: biochemical; conditions: 10 μM ATP, 6 nM BTK (C481S), pEY substrate, 20 min pre-incubation, 120 min reaction
Experimental: The kinase activity of BTK (C481S) was assayed at Reaction Biology Corporation. The substrate in the BTK (C481S) reaction, pEY (poly[Glu:Tyr] (4:1)) (Sigma, Cat. #P7244-250MG), was prepared in fresh reaction buffer (20 mM Hepes (pH 7.5), 10 mM MgCl2, 1 mM EGTA, 0.02% Brij35, 0.02 mg/ml BSA, 0.1 mM Na3VO4, 2 mM DTT, 1% DMSO). BTK(C481S) (SignalChem, Cat. #B10-12CH) was delivered into the substrate solution and mixed gently. The final concentrations of BTK (C481S) and the substrate in the reaction mixture were 6 nM and 0.2 mg/ml, respectively. Compounds were tested in 10-point concentration/response mode with 3-fold serial dilution steps starting at 1 μM.
Compounds in 100% DMSO were delivered into the kinase reaction mixture by acoustic liquid delivery technology (Echo550; nanoliter range) and incubated for 20 min at room temperature. 10 μM [^33P]-ATP (ATP: Sigma, Cat #: A7699; [^33P]-ATP: Hartmann Analytic, Cat #: SCF-301-12) was delivered into the reaction mixture to initiate the reaction. The mixture was incubated for 120 min at room temperature. Radioactivity was detected utilizing a proprietary filter-binding method. Kinase activity data were expressed as the percent remaining kinase activity in test samples compared to vehicle (DMSO) reactions. IC50 values were obtained using GraphPad Prism software.

[1] = Pharmacokinetics in male Beagle dogs, single oral gavage; format: in vivo
Experimental: The purpose of this study was to determine the pharmacokinetics of Example 1 in male Beagle dogs (Supplied by Marshall Bioresources, Beijing, China).
(§1) Animals were administered with Example 1 and Reference Compound 1 by single oral gavage (PO) administration at 3 mg/kg and 5 mg/kg, respectively, which was formulated in 10% DMSO (Sigma, Batch #STBJ2353): 60% PEG400 (PanReac AppliChem, Batch #1480132): 30% water at 5 mg/mL as a solution. Blood samples were collected at predose, 0.083, 0.25, 0.5, 1, 2, 4, 8, 12 and 24 hours post-dose. Concentrations of Example 1 and Reference Compound 1 in plasma were determined by LC/MS/MS (LC: Waters; MS: API4000).

[2] = Pharmacokinetics in male Sprague-Dawley rats, single oral gavage; format: in vivo; conditions: 5 mg/kg; for AUC(0-t) / half-life: rat, plasma
Experimental: The purpose of this study was to determine the pharmacokinetics of Example 1 and Example 2 in male Sprague-Dawley rats (Supplied by Beijing Vital River Laboratory Animal Technology Co., Ltd.).
as §1, with “and Example 2” for “and Reference Compound 1”, “at” for “at 3 mg/kg and”, “at 2” for “at 5”, “(LC: Waters UPLC;” for “(LC: Waters;”

BTK (C481S), sequence (Q06187 whole entry C481S): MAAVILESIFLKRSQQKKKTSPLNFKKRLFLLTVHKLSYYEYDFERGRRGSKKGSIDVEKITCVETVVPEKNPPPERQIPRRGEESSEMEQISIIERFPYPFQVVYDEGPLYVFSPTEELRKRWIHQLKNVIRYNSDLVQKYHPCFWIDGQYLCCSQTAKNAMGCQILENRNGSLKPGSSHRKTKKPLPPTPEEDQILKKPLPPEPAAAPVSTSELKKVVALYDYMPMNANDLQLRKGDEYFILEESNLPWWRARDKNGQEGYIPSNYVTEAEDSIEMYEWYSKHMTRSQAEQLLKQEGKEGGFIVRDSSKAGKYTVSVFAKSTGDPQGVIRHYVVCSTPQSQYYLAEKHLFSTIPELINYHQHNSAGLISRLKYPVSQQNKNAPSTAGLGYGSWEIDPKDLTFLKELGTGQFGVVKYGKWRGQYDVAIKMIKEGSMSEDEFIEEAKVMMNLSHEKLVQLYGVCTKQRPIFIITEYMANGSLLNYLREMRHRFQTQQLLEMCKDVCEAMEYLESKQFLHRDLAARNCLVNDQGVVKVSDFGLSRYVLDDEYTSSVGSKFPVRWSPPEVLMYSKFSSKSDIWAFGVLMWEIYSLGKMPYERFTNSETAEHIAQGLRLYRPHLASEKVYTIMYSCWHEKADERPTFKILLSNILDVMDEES

SMILES	IC50 (BTK (C481S)) [nM]	F [2] [%]	AUC(0-t) [2] [ng·h/mL]	half-life [2] [h]	IC50 (DOHH2 cells) [nM]	also measured
CCS(=O)(=O)NC[C@@H]1CC[C@@H](Nc2c(F)cnc3[nH]cc(C(=O)c4ccc(Oc5c(F)cccc5F)cc4F)c23)CO1 [Example 6, N-(((2S,5R)-5-((3-(4-(2,6-difluorophenoxy)-2-fluorobenzoyl)-5-fluoro-1H-pyrrolo[2,3-b]pyridin-4-yl)amino)tetrahydro-2H-pyran-2-yl)methyl)ethanesulfonamide]					1	
O=C(c1ccc(Oc2c(F)cccc2F)cc1F)c1c[nH]c2ncc(F)c(N[C@@H]3CC[C@@H](CNS(=O)(=O)C4CC4)OC3)c12 [Example 8, N-(((2S,5R)-5-((3-(4-(2,6-difluorophenoxy)-2-fluorobenzoyl)-5-fluoro-1H-pyrrolo[2,3-b]pyridin-4-yl)amino)tetrahydro-2H-pyran-2-yl)methyl)cyclopropanesulfonamide]					1	
CCOc1cnc2[nH]cc(C(=O)c3ccc(Oc4ccccc4F)cc3F)c2c1N[C@@H]1CC[C@@H](CO)OC1 [Reference Compound 1, (5-ethoxy-4-(((3R,6S)-6-(hydroxymethyl)tetrahydro-2H-pyran-3-yl)amino)-JH-pyrrolo[2,3-b]pyridin-3-yl)(2-fluoro-4-(2-fluorophenoxy)phenyl)methanone, reference compound]						F ([1]; 5 mg/kg): 9.82%; AUClast ([1]; 5 mg/kg, plasma): 200 ng·h/mL; T1/2 ([1]; 5 mg/kg, plasma): 3.39 h
CCS(=O)(=O)NC[C@@H]1CC[C@@H](Nc2c(F)cnc3[nH]cc(C(=O)c4ccc(Oc5ccccc5F)cc4F)c23)CO1 [Example 3, N-(((2S,5R)-5-((5-fluoro-3-(2-fluoro-4-(2-fluorophenoxy)benzoyl)-1H-pyrrolo[2,3-b]pyridin-4-yl)amino)tetrahydro-2H-pyran-2-yl)methyl)ethanesulfonamide]					1	

More lines, main results first:

IC50 (BTK (C481S)) [nM]	F [2] [%]	AUC(0-t) [2] [ng·h/mL]	half-life [2] [h]	SMILES	IC50 (DOHH2 cells) [nM]	also measured
1.5	24.9	4950	3.69	CS(=O)(=O)NC[C@@H]1CC[C@@H](Nc2c(F)cnc3[nH]cc(C(=O)c4ccc(Oc5c(F)cccc5F)cc4F)c23)CO1 [Example 1, N-(((2S,5R)-5-((3-(4-(2,6-difluorophenoxy)-2-fluorobenzoyl)-5-fluoro-1H-pyrrolo[2,3-b]pyridin-4-yl)amino)tetrahydro-2H-pyran-2-yl)methyl)methanesulfonamide]	1	F ([1]; 3 mg/kg): 26.0%; AUC(0-t) ([1]; dog, 3 mg/kg, plasma): 3820 ng·h/mL; half-life ([1]; dog, 3 mg/kg, plasma): 15.6 h
0.66	31	8340	3.08	CS(=O)(=O)NC[C@@H]1CC[C@@H](Nc2c(F)cnc3[nH]cc(C(=O)c4ccc(Oc5ccccc5F)cc4F)c23)CO1 [Example 2, N-(((2S,5R)-5-((5-fluoro-3-(2-fluoro-4-(2-fluorophenoxy)benzoyl)-1H-pyrrolo[2,3-b]pyridin-4-yl)amino)tetrahydro-2H-pyran-2-yl)methyl)methanesulfonamide]	27	

Reference: patent US20230406856A1, “SUBSTITUTED PYRROLO [2, 3-b] PYRIDINE AND PYRAZOLO [3, 4-b] PYRIDINE DERIVATIVES AS PROTEIN KINASE INHIBITORS” (Fochon Biosciences, Ltd., priority 2020, published 2023)
